Test results taken from publication PMC12635197, “Discovery of first-in-class inhibitors of the TRF1:TIN2 protein:protein interaction by fragment screening” (Scientific Reports, 2025).
pIC50, pKd: −log10 of the molar value.

Assays:
TRF1TRFH [1] = biological target: T1, TRF1TRFH (Homo sapiens, UniProt P54274); assay: LO-NMR CPMG assay (relaxation-edited), singletons; type: binding; settings: single experiment; for CPMG reduction: average peak intensity reduction on addition of TRF1TRFH, 250 µM ligand, 20 µM protein; for CPMG recovery: net recovery of peak intensity on addition of TIN2TBM peptide (40 µM) to compound plus protein
T1 construct: encoding residues 47–268, UniProt identifier P54274-1; His6-MBP (TEV-cleavable) (N, cleaved yes); made in house; host or cells: E. coli BL21-CodonPlus(DE3)-RIL
T1 sequence (P54274 47-268): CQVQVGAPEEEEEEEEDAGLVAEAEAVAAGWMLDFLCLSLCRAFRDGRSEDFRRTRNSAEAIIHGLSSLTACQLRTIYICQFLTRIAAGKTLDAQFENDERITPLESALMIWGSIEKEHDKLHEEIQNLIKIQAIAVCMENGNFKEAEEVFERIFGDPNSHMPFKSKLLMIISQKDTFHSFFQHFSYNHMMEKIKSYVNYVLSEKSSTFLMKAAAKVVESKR
Procedure: We next used a LO-NMR CPMG assay to orthogonally validate XChem hits in solution, aiming to eliminate false positives and rank hit matter for follow-up studies. Compounds were tested as singletons and prepared in two samples containing either compound alone (sample 1) or compound + TRF1TRFH (sample 2).
The fragment screen by LO-NMR was carried out using conditions described previously, with some modifications. Fragments were dispensed in triplicate into a 384-well plate using an Echo 550 liquid handler to give a final ligand concentration of 250 µM (total sample volume of 40 µL). 40 µL of TRF1TRFH protein (in NMR buffer; 20 µM final protein concentration in the assay) were added to the ‘protein’ samples; 40 µL of TRF1TRFH protein and TIN2TBM peptide (21-mer, Ac-[…]-CONH2; 40 µM final concentration in the assay) were both added to the ‘competitor’ samples; 40 µL NMR buffer were added to the ‘compound-only’ samples. Solutions were transferred to 1.7-mm NMR tubes using a Bruker SamplePro Tube robotics system. ^1H NMR spectra were recorded on a Bruker AVIII 500 MHz spectrometer at 298 K, equipped with a 1.7-mm TXI probe, with samples in 1.7-mm SampleJET NMR tubes (Bruker). DMSO and water signals were dampened. A relaxation spin filter was applied at 400 ms. Data were processed using Bruker Topspin 4.0. Lines were broadened with LB = 3.0, and the baseline was corrected between 6.0 and 10.0 ppm.
The data were then analysed using the MNova Screen software. Only peaks between 5.5 and 9.5 ppm were considered. Peaks with a height of < 5% maximum peak height within the region of interest were considered noise, and the minimum matched peak level was set at > 51%. The relative peak intensity change (I) was calculated for all peaks in the 5.5–9.5 ppm region, for each compound, as described previously. The average integral for all peaks between 6.0 and 10.0 ppm was calculated, and the differences between compound-only, compound-plus-protein, and compound-plus-protein-plus-competitor samples were compared. The net recovery was calculated by subtracting the reduction in peak integral of the compound-plus-protein samples from the compound-plus-protein-plus-competitor samples.
For hit validation, relaxation-edited LO-NMR experiments were repeated as described above on single compounds instead of fragment cocktails.

[2] = Fragment solubility assay (quantitative 1H NMR); type: physicochemical; settings: NMR buffer, overnight incubation, 1H NMR quantified against 1 mM caffeine standard
Procedure: Aqueous solubility test samples were prepared by adding 3.6 µL compound (50 mM stock in 100% DMSO-d6) to 176.4 µL NMR buffer in a microcentrifuge tube. The samples were incubated overnight and transferred to a 3-mm NMR tube (Bruker, Part No. Z112272). ^1H NMR spectra were recorded, with the DMSO and water signals dampened. 1 mM caffeine (Sigma, C1778 in PBS (pH 7.4) with 1% DMSO-d6) was used as a standard to quantify the ligand signals and determine the concentration of samples.
NMR data were collected on a Bruker Avance Neo 600-MHz spectrometer equipped with a 5 mm TCI-CryoProbe. The ^1H spectrum was referenced to the internal deuterated solvent. The operating frequency for ^1H was 600 MHz. All NMR data were acquired at the temperature of 298 K. All data were acquired and processed using Bruker Topspin 4.0. The quantitative ^1H-NMR spectrum was acquired using a Bruker standard 1D lc1pngppsf2 pulse sequence with 32 scans. The sweep width was 6.2 ppm with O1P set to 8.8 ppm, and the FID contained 16k time-domain data points. Relaxation delay was set to 20 s. Water signal was suppressed.

TRF1TRFH [3] = biological target: T1, TRF1TRFH; assay: LO-NMR R2KD assay; type: binding; settings: for pKd: global KD shared across 1H NMR peaks, single experiment, 95% CI in parentheses, 2 µM TRF1TRFH
Procedure: Recent work by Liu and colleagues introduced a novel LO-NMR method that can be used to quantitatively determine the dissociation constant (KD) of a ligand for a protein from measured R2 values of ligand nuclei at a range of ligand concentrations.
The R2KD assay was carried out as described by Liu et al.[40]. A Bruker SamplePro liquid handler was used to prepare 10 samples: 8 samples containing an increasing ligand concentration from 50 to 500 µM whilst maintaining a constant TRF1TRFH concentration (2 µM final); and two samples containing ligand only at 200 µM and 400 µM. All ten samples were prepared from stock solutions of ligand, DMSO, protein and buffer alone using the Bruker SamplePro liquid handler prior to transfer to 3-mm NMR tubes.
NMR data were collected at 298 K on a Bruker Avance Neo 600-MHz spectrometer using the Bruker Topspin 4.0 software. T2 relaxation experiments were performed using the standard Bruker CPMG pulse program with Excitation Sculpting incorporated to suppress water signal. The spin-echo period (delay-180°-delay) was set to 1 ms (d20 = 500 µs), and the relaxation delay (d1) was set to 10 s. The sudo-2D experiment contained nine slices with the spin echo period repeated at the following times: 4, 20, 100, 200, 300, 500, 700, 1000, and 2000 ms. T2 relaxation data were processed using the MestReNova 14.1 data analysis module to obtain integrals of individual[1]H-NMR signals, which were used to calculate R2 with the equation I = I0e^(−tR2). GraphPad Prism 9.0.0 was used to fit R2 values of individual compound peaks to obtain an overall (shared) KD value from all peaks of the compound.

[4] = biological target: T2, TRF1TRFH:TIN2-FAM interaction (Homo sapiens, UniProt P54274); assay: Fluorescence polarisation (FP) competition assay, TIN2-FAM displacement; type: binding; settings: 0.6 µM TRF1TRFH, 25 nM TIN2-FAM; mean of three independent experiments, 95% CI in parentheses
T2 construct: encoding residues 47–268, UniProt identifier P54274-1; His6-MBP (TEV-cleavable) (N, cleaved yes); made in house; host or cells: E. coli BL21-CodonPlus(DE3)-RIL (TRF1TRFH); probe peptide from Pepceuticals
T2 sequence (P54274 47-268): T1 sequence (P54274 47-268)
Procedure: To complement the biophysical R2KD assay, we developed a fluorescence polarisation (FP) competition assay based on a TIN2TBM peptide labelled with an N-terminal 5(6)-carboxyfluorescein (6-FAM) fluorophore. […] The NMR hit analogues were then titrated against constant concentrations of TRF1TRFH and TIN2-FAM (0.6 µM and 25 nM, respectively).
A TIN2TBM peptide was obtained from Pepceuticals with a 5(6)-carboxyfluorescein (FAM) fluorophore added to the N-terminus for fluorescence studies. To determine the assay window for the FP assay, the TIN2-FAM probe was prepared as a 16-µM stock in aqueous buffer and titrated from 0 to 400 nM against either a constant concentration of TRF1TRFH (0.5 µM in FP buffer) or FP buffer alone (25 mM HEPES-NaOH pH 7.5, 100 mM NaCl, 1 mM TCEP, 0.05% w/v CHAPS). Samples were prepared to a final volume of 10 µL in Packard Proxiplate 384 F plus plates; plates were incubated in darkness at room temperature for 1 h prior to measuring fluorescence intensities and calculating FP values, using a BMG Labtech PHERAstar FSX plate reader with an FP 485 520 520 optic module. A settling time of 0.3 s was used, and the number of flashes was set to 200 for FP measurements. For each plate, a target mP of 35 was set and the gain adjusted on the TIN2-FAM probe control well minus protein.
For the FP competition assay, the unlabelled compounds (from 50-mM DMSO stocks) were first dispensed in duplicate into wells of a Proxiplate 384 F Plus plate using an Echo 550 acoustic liquid handler to give a 13-point concentration range from 0.2 to 500 µM. Wells were then backfilled to 250 nL with DMSO before the addition of 5 µL of 2x TRF1TRFH (0.6 µM final concentration) and 4.75 µL 2x TIN2-FAM (25 nM final concentration). Plates were spun and sealed prior to incubation for 1 h in darkness. FP measurements were then carried out as described above.

Row | CPMG reduction (TRF1TRFH [1]) [%] | Kin. Sol. [2] [µM] | CPMG recovery (TRF1TRFH [1]) [%] | pKd (TRF1TRFH [3]) | increase in affinity relative to ethoxy parent 27 (TRF1TRFH [3]; R2KD assay) | pIC50 [4] | Structure (SMILES)
1 | 13 |  |  |  |  |  | O=C(NC1CC1)c1cnn2cccnc12 [Compound 1]
2 | 12 |  |  |  |  |  | CN(C)C(=O)COc1cccc(F)c1 [Compound 6]
3 | 0 |  |  |  |  |  | NS(=O)(=O)c1ccccc1OC(F)F [Compound 15]
4 | 22 |  |  |  |  |  | c1ccc(-c2noc(C3CCC3)n2)nc1 [Compound 16]
5 | 96 | 810 | 49 | 3.55 |  |  | CCOc1ccc(S(=O)(=O)O)c2ccccc12 [Compound 27]
6 | 87 | 610 | 22 |  |  |  | COc1ccc(S(=O)(=O)O)c2ccccc12 [Compound 28, 4-methoxy-1-naphthalenesulfonic acid]
7 |  | 840 |  | < 3.00 |  |  | O=S(=O)(O)c1ccc(O)c2ccccc12 [Compound 29, 1-naphthol-4-sulfonic acid]
8 | 83 | 860 | 4 | < 3.00 |  |  | CC(C)Oc1ccc(S(=O)(=O)[O-])c2ccccc12.[Na+] [Compound 30]
9 | 100 | 850 | 29 | 4.21 | five-fold increase in affinity | 3.82 | O=S(=O)(O)c1ccc(OCc2ccccc2)c2ccccc12 [Compound 32]
10 | 79 | 50 | 1 |  |  |  | CCOc1ccc(S(N)(=O)=O)c2ccccc12 [Compound 33, 4-ethoxynaphthalene-1-sulfonamide]
11 | 28 | 895 | 20 |  |  |  | CCOc1ccc(C(=O)O)c2ccccc12 [Compound 34, 4-ethoxy-1-naphthoic acid]
12 |  | < 50 |  |  |  |  | CCOc1ccc(S(=O)(=O)N(C)C)c2ccccc12 [Compound 35]
13 |  | 0 |  |  |  |  | CCOc1ccc(S(=O)(=O)NCc2ccccc2)c2ccccc12 [Compound 36]
14 |  | 460 |  | 4.08 |  | 3.70 | Cc1cccc(COc2ccc(S(=O)(=O)[O-])c3ccccc23)c1.[Na+] [Compound 37]
15 |  | 570 |  | 4.28 |  | 3.82 | COc1cccc(COc2ccc(S(=O)(=O)[O-])c3ccccc23)c1.[Na+] [Compound 38]
16 |  | 320 |  | 3.96 |  | 3.77 | COc1ccccc1COc1ccc(S(=O)(=O)[O-])c2ccccc12.[Na+] [Compound 39]
17 |  | 590 |  | 4.34 |  | 4.64 | CCCOc1cccc(COc2ccc(S(=O)(=O)[O-])c3ccccc23)c1.[Na+] [Compound 41]
18 |  | 260 |  |  |  | 4.10 | O=S(=O)([O-])c1ccc(OCc2cccc(OC(F)(F)F)c2)c2ccccc12.[Na+] [Compound 42]
19 |  | 500 |  | 3.85 |  | 3.74 | O=S(=O)([O-])c1ccc(OCc2cccc(Cl)c2)c2ccccc12.[Na+] [Compound 43]
20 |  | 160 |  |  |  | 3.96 | O=S(=O)([O-])c1ccc(OCc2cccc(Br)c2)c2ccccc12.[Na+] [Compound 44]
